Results reported in patent EP2322149A1, “Methods and compositions for the treatment of ischemia” (Universidad del Pais Vasco, priority 2009, dated 2011).
Entries after “also recorded” stand apart in the source; their conditions may differ. Where a name gives a salt, the structure may show the parent alone.

Tests used:
P2X2 = target: T1, P2X2 (Homo sapiens, UniProt Q9UBL9); settings: read-out: IC50 P2X2; cited from earlier work
T1 sequence (Q9UBL9 1-471): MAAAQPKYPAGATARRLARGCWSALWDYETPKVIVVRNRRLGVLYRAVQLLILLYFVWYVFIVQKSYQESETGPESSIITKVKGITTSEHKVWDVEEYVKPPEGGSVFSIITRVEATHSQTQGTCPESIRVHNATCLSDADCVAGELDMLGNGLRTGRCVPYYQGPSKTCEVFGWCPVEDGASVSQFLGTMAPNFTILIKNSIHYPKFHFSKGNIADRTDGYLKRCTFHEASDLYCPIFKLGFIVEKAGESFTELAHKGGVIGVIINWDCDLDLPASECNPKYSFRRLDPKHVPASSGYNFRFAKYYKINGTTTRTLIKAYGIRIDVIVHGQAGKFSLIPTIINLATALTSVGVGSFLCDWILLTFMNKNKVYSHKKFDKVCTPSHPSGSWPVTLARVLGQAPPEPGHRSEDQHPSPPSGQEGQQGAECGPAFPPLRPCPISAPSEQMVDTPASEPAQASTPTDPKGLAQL

P2X1 = target: T2, P2X1 (Homo sapiens, UniProt P51575); settings: read-out: IC50 P2X1; cited from earlier work
T2 sequence (P51575 1-399): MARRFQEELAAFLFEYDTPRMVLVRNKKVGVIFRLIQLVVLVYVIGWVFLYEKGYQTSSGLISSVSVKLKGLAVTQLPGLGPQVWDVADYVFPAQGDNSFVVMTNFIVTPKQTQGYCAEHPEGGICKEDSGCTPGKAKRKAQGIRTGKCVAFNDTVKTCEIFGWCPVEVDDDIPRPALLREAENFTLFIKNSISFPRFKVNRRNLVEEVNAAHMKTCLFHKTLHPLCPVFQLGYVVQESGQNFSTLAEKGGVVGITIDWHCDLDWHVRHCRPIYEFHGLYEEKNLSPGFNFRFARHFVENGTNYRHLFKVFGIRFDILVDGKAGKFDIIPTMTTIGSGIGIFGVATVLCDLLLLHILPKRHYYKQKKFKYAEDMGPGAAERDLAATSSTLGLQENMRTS

P2X3 = target: T3, P2X3 (Homo sapiens, UniProt P56373); settings: read-out: IC50 P2X3; cited from earlier work
T3 sequence (P56373 1-397): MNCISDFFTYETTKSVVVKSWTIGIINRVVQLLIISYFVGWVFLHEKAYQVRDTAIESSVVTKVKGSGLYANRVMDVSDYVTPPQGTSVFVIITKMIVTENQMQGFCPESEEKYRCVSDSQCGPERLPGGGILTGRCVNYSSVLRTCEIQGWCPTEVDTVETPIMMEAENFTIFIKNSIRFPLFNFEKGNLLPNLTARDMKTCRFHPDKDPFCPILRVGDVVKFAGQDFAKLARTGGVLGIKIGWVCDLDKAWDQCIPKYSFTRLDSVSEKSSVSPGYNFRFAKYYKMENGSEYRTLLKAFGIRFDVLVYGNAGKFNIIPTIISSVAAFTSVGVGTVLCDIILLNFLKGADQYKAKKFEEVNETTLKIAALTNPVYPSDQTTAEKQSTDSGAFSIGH

[1] = system: cultured optic nerve oligodendrocytes; assay: ATP release measurement (luciferin/luciferase) in oligodendrocyte cultures after OGD; format: cell-based, Sprague-Dawley rats
Description: (§1) Primary cultures of oligodendrocytes derived from optic nerves of 12 day-old Sprague-Dawley rats were obtained as previously described (Matute et al., 1997 Proc Natl Acad Sci U S A 94:8830-8835.).Cells were maintained at 37°C and 5% CO2 in a chemically defined medium (Matute et al., 1997 Proc Natl Acad Sci U S A 94:8830-8835.). After 2-4 days in vitro, cultures were composed of at least 98% 04/Ga1C^+ cells. No microglial cells were detected in these cultures. […] Cell death was determined 24h later using calcein-AM (Invitrogen) as previously described (Matute et al., 1997 Proc Natl Acad Sci U S A 94:8830-8835.). Antagonists were present during in vitro ischaemia and during the next 24h incubation period. […] To assay the levels of reactive oxygen species (ROS), cells were loaded with 40 µM 2',7'- dichlorodihyfluoresceindiacetate (DCFDA; Invitrogen) and 1 µM calcein red-orange (Molecular Probes) immediately after OGD. Calcein was used to quantify the number of cells within the reading field. Fluorescence was measured as above and values were plotted as the percentage of DCFDA/calcein red-orange fluorescence versus control. The changes in mitochondrial membrane potential were monitored with 5,5',6,6'-tetrachloro-1,1',3,3'-tetraethylbenzimidazolcarbocyanine iodide (JC-1; Molecular Probes). Immediately after OGD, cells were loaded with JC-1 (3 µM) at 37°C for 30 min. The changes in the membrane potential were calculated as the red (emission at 590)/green (emission at 520) ratio in each condition and results were normalized to control.
ATP levels were measured using a Luciferin/Luciferase assay kit (Invitrogen) after 1h normoxia or OGD in oligodendrocyte cultures and in isolated optic nerves according to the manufacturer's instructions. The luminescence was measured with a luminometer Synergy-HT (BioTek) with an integration time of 3 sec. Because ATP was measured in the culture medium and in the solution bathing optic nerves, the concentration of ATP at the extracellular surface, near the vicinity of the receptor was underestimated (Joseph et al., 2003. J Biol Chem 278:23331-23342). The limit of ATP detection was 1 nM and luminescence was linear with increasing ATP concentrations to 1000 nM. The total amount of ATP was calculated according to standard curves and ATP release was expressed in percentage vs control.

[2] = system: optic nerve oligodendrocytes; assay: Oxygen and glucose deprivation (OGD) cell death in oligodendrocyte cultures (calcein-AM); format: cell-based, Sprague-Dawley rats; settings: 1h OGD, calcein 24h later; PPADS 100 µM, BBG 50 nM, CNQX 30 µM, APV 100 µM, apyrase 20 U/ml, ARL67156 100 µM, CBX 20 µM, FFA 100 µM, MFQ 1 nM
Description: as §1

optic nerves = assay: Optic nerve ischaemia (OGD), tissue damage by LDH release; set-up: species or system rats; settings: P28 rat optic nerves, 1h OGD + 2h reperfusion; PPADS 1 mM, BBG 50 nM, oATP 1 mM, apyrase 20 U/ml, MFQ 1 µM, CBX 100 µM, FFA 1 mM
Description: After 1h OGD at 37°C, the medium was replaced with fresh solution containing glucose and equilibrated with 95% O2, 5% CO2 and the nerves were incubated for another 2h at 37°C to simulate reperfusion.

P2X6 = P2X6 (Homo sapiens, UniProt O15547); settings: read-out: IC50 P2X6; cited from earlier work
Chain of P2X6 (O15547 whole entry, species assumed): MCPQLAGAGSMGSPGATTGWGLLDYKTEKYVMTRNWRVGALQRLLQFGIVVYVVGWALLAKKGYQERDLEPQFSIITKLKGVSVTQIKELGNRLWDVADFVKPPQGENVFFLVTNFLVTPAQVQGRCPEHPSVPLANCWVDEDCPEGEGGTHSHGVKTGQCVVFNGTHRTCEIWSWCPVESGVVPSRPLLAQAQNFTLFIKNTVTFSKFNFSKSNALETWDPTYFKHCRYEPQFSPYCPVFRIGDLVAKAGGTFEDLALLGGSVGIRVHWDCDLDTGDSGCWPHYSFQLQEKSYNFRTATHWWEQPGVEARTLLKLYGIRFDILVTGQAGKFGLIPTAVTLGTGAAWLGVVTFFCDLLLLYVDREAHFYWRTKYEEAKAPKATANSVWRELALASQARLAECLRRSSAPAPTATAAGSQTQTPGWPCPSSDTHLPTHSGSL

P2X7 = target: T4, P2X7 (Homo sapiens, UniProt Q99572); settings: cited from earlier work
T4 sequence (Q99572 1-595): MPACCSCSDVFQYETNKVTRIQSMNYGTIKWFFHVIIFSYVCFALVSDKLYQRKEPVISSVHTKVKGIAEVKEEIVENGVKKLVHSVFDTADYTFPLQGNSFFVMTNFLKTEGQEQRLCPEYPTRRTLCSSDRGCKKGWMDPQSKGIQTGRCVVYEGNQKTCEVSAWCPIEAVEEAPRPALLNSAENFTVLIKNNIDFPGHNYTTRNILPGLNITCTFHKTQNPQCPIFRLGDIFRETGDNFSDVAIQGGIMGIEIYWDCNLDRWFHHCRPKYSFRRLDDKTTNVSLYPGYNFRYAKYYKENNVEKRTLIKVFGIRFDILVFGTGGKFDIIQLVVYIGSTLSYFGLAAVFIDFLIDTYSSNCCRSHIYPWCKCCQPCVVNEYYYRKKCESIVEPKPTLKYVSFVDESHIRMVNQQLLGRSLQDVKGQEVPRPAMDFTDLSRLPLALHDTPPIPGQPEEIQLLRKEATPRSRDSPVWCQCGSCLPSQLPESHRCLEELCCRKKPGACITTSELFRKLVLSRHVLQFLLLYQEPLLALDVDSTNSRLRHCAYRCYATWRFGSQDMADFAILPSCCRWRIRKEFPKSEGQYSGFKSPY

Row | Molecule | IC50 (P2X2) | IC50 (P2X3) | IC50 (P2X7) | other results
1 | 1-amino-4-[[4-[[4-chloro-6-[[3 (or 4)-sulfophenyl]amino]-1,3,5-triazin-2-yl]amino]-3-sulfophenyl]amino]-9,10-dihydro-9,10-dioxo-2-anthracenesulfonic acid [RB-2] | 1 µM |  |  | 
2 | Cc1nc(N=Nc2cc(S(=O)(=O)O)ccc2S(=O)(=O)O)c2c(c1O)COP(=O)(O)OC2 [MRS2220, cyclic pyridoxine-alpha.4,5-monophosphate-6-azo-phenyl-2',5'disulfonate] |  | 58 µM |  | IC50 (P2X1): 10 µM
3 | CCN(CC)c1ncnc2c1ncn2[C@@H]1O[C@H](COP(=O)(O)OP(=O)(O)C(Br)(Br)P(=O)(O)O)[C@@H](O)[C@H]1O [ARL67156] |  |  |  | ATP concentration after OGD ([1]; 1h OGD, ARL67156 100 µM, percentage vs control, OGD alone 181.2 ± 25.3 %): 439.6 ± 71.0%; ATP release after 1h OGD ([1]; ARL67156 100 µM): potentiated; OGD-induced oligodendrocyte cell death [2]: increased; also recorded: potentiated
4 | O=C(O)c1ccccc1Nc1cccc(C(F)(F)F)c1 [FFA, 2-[3-(trifluoromethyl)anilino]benzoic acid] |  |  |  | ATP levels after OGD ([1]; 1h OGD in the presence of ARL67156, CBX 20 µM, FFA 100 µM, MFQ 1 nM (figure legend)): significantly reduced; ischaemia-induced damage to optic nerves (LDH release) (optic nerves): reduced; also recorded: attenuated; OGD-induced oligodendrocyte cell death [2]: inhibited
5 | Cc1nc(/N=N/c2cc(S(=O)(=O)O)ccc2S(=O)(=O)O)c(COP(=O)(O)O)c(C=O)c1O [isoPPADS, tetrasodium salt of pyridoxalphosphate-6-azophenyl-1',4'-disulfonic acid] |  | 1 µM |  | IC50 (P2X1): 1 to 5 µM
6 | Cc1ccc(C(=O)Nc2ccc(S(=O)(=O)O)c3cc(S(=O)(=O)O)cc(S(=O)(=O)O)c23)cc1NC(=O)c1cccc(NC(=O)Nc2cccc(C(=O)Nc3cc(C(=O)Nc4ccc(S(=O)(=O)O)c5cc(S(=O)(=O)O)cc(S(=O)(=O)O)c45)ccc3C)c2)c1 [Suramin, hexasodium salt of 8,8'-[carbonylbis[imino-3,1-phenylenecarbonylimino(4-methyl-3,1-phenylene)carbonylimino]] bisnaphthalene-1,3,5-trisulphonic acid] | 1 to 5 µM |  |  | IC50 (P2X6): > 100 µM
7 | O=C(Nc1ccc(C(=O)Nc2ccc(C(=O)Nc3ccc(S(=O)(=O)O)c4cc(S(=O)(=O)O)cc(S(=O)(=O)O)c34)cc2)cc1)Nc1ccc(C(=O)Nc2ccc(C(=O)Nc3ccc(S(=O)(=O)O)c4cc(S(=O)(=O)O)cc(S(=O)(=O)O)c34)cc2)cc1 [NF279] | 0.77 µM | 1.6 µM | 2.8 µM | IC50 (P2X1): 2 µM
8 | O=C(Nc1cc(C(=O)Nc2ccc(S(=O)(=O)O)cc2S(=O)(=O)O)cc(C(=O)Nc2ccc(S(=O)(=O)O)cc2S(=O)(=O)O)c1)Nc1cc(C(=O)Nc2ccc(S(=O)(=O)O)cc2S(=O)(=O)O)cc(C(=O)Nc2ccc(S(=O)(=O)O)cc2S(=O)(=O)O)c1 [NF449, octasodium salt of 4,4',4",4"'-(carbonylbis(imino-5,1,3-benzenetriylbis(carbonylimino)))tetrakis-benzene-1,3-disulfonic acid] |  | < 0.006 µM |  | 
9 | Nc1ncnc2c1ncn2[C@@H]1O[C@H](COP(=O)(O)OP(=O)(O)OP(=O)(O)O)[C@H]2OC3(O[C@H]21)C([N+](=O)[O-])=CC(=[N+]([O-])[O-])C=C3[N+](=O)[O-] (stereo partly shown) [TNP-ATP, monolithium salt of 2',3'-O-2,4,6-trinitrophenyl-adenosine 5'-triphosphate] |  |  | > 30 µM | 
10 | NC(N)=NC(=O)c1nc(Cl)c(N2CCCCCC2)nc1N [HMA] |  |  | 4.5 µM | 
11 | Cc1nc(N=Nc2cc(S(=O)(=O)O)c3cc([N+](=O)[O-])cc(S(=O)(=O)O)c3c2)c(CO[P+]([O-])(O)O)c(C=O)c1O [PPNDS] | 0.015 µM |  |  | 
12 | CN([C@@H](Cc1ccc(OS(=O)(=O)c2cccc3cnccc23)cc1)C(=O)N1CCN(c2ccccc2)CC1)S(=O)(=O)c1cccc2cnccc12 [KN-62, ester of 4-[(2S)-2-[(5-isoquinolinylsulfonyl)methylamino]-3-oxo-3-(4-phenyl-1-piperazinyl)propyl] phenyl isoquinolinesulfonic acid] |  |  | 0.015 µM | 
